Key:
[1] = tested on: HEK293; test: In vitro cytotoxicity, IC50 by flow cytometry (Guava ViaCount); type: cell-based; conditions: conditionally normal
Experimental: (§1) Human cancer cell line HeLa, HL60, A2780 was obtained from the HPA Culture Collections (Salisbury, UK). Cells (Jurkat, K562, U937, Hek293, Fibroblasts) were purchased from Russian Cell Culture Collection (Institute of Cytology of the Russian Academy of Sciences, […], Russia) and cultured according to standard protocols and sterile technique. […] Cells were maintained in RPMI 1640 (Jurkat, K562, U937, HL60) (Gibco, Billings, MT, USA) supplemented with […], 10% FBS (Sigma) and 100 units/mL penicillin–streptomycin (Sigma). All types of cells were grown in an atmosphere of 5% CO2 at 37 °C. The cells were subcultured at 2–3 days intervals. Cells were then seeded in 24-well plates at 5 × 10^4 cells per well and incubated overnight. Jurkat, K562, U937, HL60 cells were subcultured at 2-day intervals with a seeding density of 1 × 10^5 cells per 24-well plates in RPMI with 10% FBS.
(§2) The antitumor activity of the synthesized ionic compounds was initially assessed in vitro on Jurkat, K562, U937, HL60, HEK293, A2780 cell lines, including the determination of IC50 by flow cytometry involving Guava ViaCount (Millipore) reagent kits.

[2] = tested on: Jurkat; test: as above; type: cell-based; conditions: Jurkat cells
Experimental: as §1, §2

[3] = tested on: K562; test: as above; type: cell-based
Experimental: as §1, §2

[4] = tested on: U937; test: as above; type: cell-based
Experimental: as §1, §2

[5] = tested on: A2780; test: as above; type: cell-based, human
Experimental: as §1, §2

[6] = tested on: HL60; test: as above; type: cell-based, human
Experimental: as §1, §2

[7] = tested on: Jurkat cells; test: Apoptosis/necrosis induction (Annexin V Alexa Fluor488, 7AAD staining); type: cell-based; conditions: compound at IC50 concentration, incubation 2 h
Description: Multiparametric evaluation of marker molecules, along with the detection of damage to the mitochondrial membrane, makes it possible to clearly determine the type of cell death. The method of cell staining with three different dyes (Annexin V Alexa Fluor488, 7AAD and MitoSense Red) provides simultaneous specification of various aspects of the state of the cell membrane, the state of DNA and the viability of mitochondria; together, it is a reliable sign of intrinsic and mitochondrial apoptosis pathway. Normal cells with intact mitochondrial membranes have high MitoSense Red fluorescence, while cells with decoupled oxidation and phosphorylation have much lower fluorescence. […]
Figure 1 The ratio of the level of mito-damage and the level of apoptosis in Jurkat cells of ionic compounds based on ursolic, oleanolic and betulinic acids.

[8] = tested on: mitochondria of Jurkat tumor cells; test: Mitochondrial damage (MitoSense Red staining); type: cell-based; conditions: compound at IC50 concentration, incubation 2 h
[9] = tested on: Jurkat cells; test: Cell cycle analysis (Guava Cell Cycle Reagent); type: cell-based; conditions: IC50 concentration, 24 h, flow histogram
Experimental: Our findings are consistent with the literature data that many ICs predominantly affect the G2 and S phases, reducing them.
The incubation time of ionic liquids with cells was 24 h. […] It is listed because the picture prints the label with values. / The fit parameters printed in each histogram (RMS, Mean G1, Mean G2, G2/G1, CV G1, CV G2) were left out as statistics of the cell-cycle model.

[10] = tested on: ATR kinase; test: Luminex xMAP DNA Damage/Genotoxicity panel, ATR kinase content; type: cell-based; conditions: Jurkat cells; 12a 0.006 µM, 13d 0.004 µM per 100,000 cells; 6 and 12 h
[11] = tested on: Chk1; test: Luminex xMAP DNA Damage/Genotoxicity panel, phosphorylated Chk1; type: cell-based; conditions: Jurkat cells; 12a 0.006 µM, 13d 0.004 µM per 100,000 cells; 6 and 12 h
Description: [Worded in the source for another target; used here, by the source, with some conditions changed.] (§3) The determination of proteins in a cell by Luminex xMAP technology is characterized by the presence of multiplex multiparametric analysis with the simultaneous use of a multiplex of antibodies with a fluorescent label and magnetic particles, thereby resulting in an increase in the sensitivity of the technique and expansion of the dynamic range, as well as an increase in detection accuracy. Luminex XMAP technology provides a simultaneous analysis of a sufficient number of different proteins in various types of biological fluids (plasma, serum, cerebrospinal fluid, follicular fluid, tissue lysate, etc.) and in cell supernatants. Consequently, multiplexing saves time/costs and ensures the same conditions for the measurements, which is essential for significance and statistical processing.
(§4) Magnetic microspheres (stained inside with two fluorescent dyes) in combination with monoclonal antibodies against the analyzed analytes (the main intracellular kinases in this case) are incubated with the samples and standards; then, the samples/standards are incubated with biotinylated monoclonal antibodies against the analyzed analytes and, finally, with a solution of streptavidin–phycoerythrin. The Luminex technology identifies the different proteins present in each well and converts the mean fluorescence intensity (MFI) of each measured cytokine to pg/mL using software and standard curves. This approach is successfully applied in fundamental and clinical research. In this work, we analyzed various protein analytes that make up the phosphorylated and non-phosphorylated fractions of the main kinases in the signaling pathways: CREB, JNK, NFkB, p38, ERK1/2, Akt, p70S6K, STAT3, STAT5 proteins in six samples of lysates of Jurkat tumor cells by Luminex technology (MILLIPLEX® MAP 9-Plex Multi-Pathway 9-plex Magnetic Bead Kit).

[12] = tested on: Chk2; test: Luminex xMAP DNA Damage/Genotoxicity panel, phosphorylated Chk2; type: cell-based; conditions: Jurkat cells; 12a 0.006 µM, 13d 0.004 µM per 100,000 cells; 6 and 12 h
Description: [Worded in the source for another target; used here, by the source, with some conditions changed.] as §3, §4

[13] = tested on: γH2AX; test: Luminex xMAP DNA Damage/Genotoxicity panel, phosphorylated γH2AX; type: cell-based; conditions: Jurkat cells; first six hours of incubation
Description: as §3, with “processing. Simultaneous measurement of cytokines by bead multiplex analysis has certain similarities with ELISA, in particular the use of antibodies, but has a fundamental difference in using magnetic fluorescent beads coupled to antikinase monoclonal antibodies.” for “processing.”
as §4
Phosphorylation of histone H2AX at serine 139 (γH2AX) is an early stage in the cellular response to DNA damage, when the damage brings about formation of a double-strand break (DSB). γH2AX foci, considered as markers of DNA double-strand breaks, are easily detected by immunofluorescence microscopy and flow cytometry. The two main signaling pathways ATM/Chk2 and ATR/Chk1 respond to DNA damage and both lead to H2AX phosphorylation, but the ATR/Chk1 pathway causes γH2AX formation to a much lesser extent. The role of γH2AX in DNA repair is also discussed.
Incubation time with the test compounds was 6 and 12 h. p < 0.001 (***).

C[n+]1ccn(CCCCCCOC(=O)[C@]23CCC(C)(C)CC2C2=CCC4[C@@]5(C)CC[C@H](O)C(C)(C)C5CC[C@@]4(C)[C@]2(C)CC3)c1.O=C([O-])c1ccccc1O (stereo partly drawn) [13f, 1-(6-{[(3β)-3-Hydroxyolean-12-en-28-oyl]oxy}hexyl)-3-methylimidazolium Salicylate] gave an IC50 ([1]; HEK293 cells) of 0.037 ± 0.003 µM, an IC50 [2] of 0.008 ± 0.001 µM and an IC50 ([3]; K562 cells) of 0.013 ± 0.001 µM. The IC50 ([4]; U937 cells) was 0.011 ± 0.001 µM, the IC50 ([5]; A2780 cells) was 0.018 ± 0.002 µM and the IC50 ([6]; HL60 cells) was 0.003 ± 0.001 µM. For the same molecule, the “Apoptosis (%) Early” value [7] was 0.17%, the “Apoptosis (%) Late” value [7] was 35.95% and the “Apoptosis (%) Necrosis” value [7] was 11.07%. For the same molecule, the “Mito-Damage (%)” value [8] was 49.43% and the “Freq Sub-G1 (hypodiploid cell population)” value [9] was 9.83%.

With N.N.[Cl][Pt][Cl] [cisplatin, reference compound] the “Freq Sub-G1 (hypodiploid cell population)” value [9] was 32.27%.

In the case of CC(=O)O[C@H]1CC[C@@]2(C)C(CC[C@]3(C)C2CC=C2C4CC(C)(C)CC[C@]4(C(=O)OCCCCCCOC(=O)c4cncn4C)CC[C@]23C)C1(C)C (stereo partly drawn) [compound 4, 6-{[(1-Methyl-1H-imidazol-5-yl)carbonyl]oxy}hexyl (3β)-3-(acetyloxy)olean-12-en-28-oate], the IC50 ([1]; Homo sapiens, HEK293, HEK293 cells) is reported as greater than 4 µM, the IC50 ([2]; Homo sapiens, Jurkat) is reported as greater than 4 µM and the IC50 ([3]; Homo sapiens, K562, K562 cells) is reported as greater than 4 µM. The IC50 ([4]; Homo sapiens, U-937, U937 cells) was greater than 4 µM, the IC50 ([5]; Homo sapiens, A2780, A2780 cells) was greater than 4 µM and the IC50 ([6]; Homo sapiens, HL-60, HL60 cells) was greater than 4 µM. The melting point was 123 to 125 °C.

In the case of CO[C@H]1C[C@@H]2CC[C@@H](C)[C@@](O)(O2)C(=O)C(=O)N2CCCC[C@H]2C(=O)O[C@H]([C@H](C)C[C@@H]2CC[C@@H](O)[C@H](OC)C2)CC(=O)[C@H](C)/C=C(\C)[C@@H](O)[C@@H](OC)C(=O)[C@H](C)C[C@H](C)/C=C/C=C/C=C/1C [rapamycin, reference compound], the “level of ATR kinase” value [10] is reported as “elevated levels”, the “content of phosphorylated checkpoint kinase Chk1” value [11] is reported as “significantly decreases” and the “content of phosphorylated checkpoint kinase Chk2” value [12] is reported as “significantly decreases”. The “increase in the phosphorylated γH2AX histone fraction” value [13] was roughly 9000 times.

With CN[C@@H]1C[C@H]2O[C@@](C)([C@@H]1OC)n1c3ccccc3c3c4c(c5c6ccccc6n2c5c31)C(=O)NC4 [staurosporine] the “content of phosphorylated checkpoint kinase Chk1” value [11] was “significantly decreases”, the “content of phosphorylated checkpoint kinase Chk2” value [12] was “significantly decreases” and the “increase in the phosphorylated γH2AX histone fraction” value [13] was roughly 9000 times.

For CC(C)[C@@H]1NC(=O)[C@H](C)OC(=O)[C@@H](C(C)C)NC(=O)[C@@H](C(C)C)OC(=O)[C@H](C(C)C)NC(=O)[C@H](C)OC(=O)[C@@H](C(C)C)NC(=O)[C@@H](C(C)C)OC(=O)[C@H](C(C)C)NC(=O)[C@H](C)OC(=O)[C@@H](C(C)C)NC(=O)[C@@H](C(C)C)OC1=O [valinomycin], the “level of ATR kinase” value [10] was “elevated levels”, the “content of phosphorylated checkpoint kinase Chk1” value [11] was “significantly decreases” and the “content of phosphorylated checkpoint kinase Chk2” value [12] was “significantly decreases”.

Reference: PMC9913425, “Pentacyclic Triterpenoids-Based Ionic Compounds: Synthesis, Study of Structure–Antitumor Activity Relationship, Effects on Mitochondria and Activation of Signaling Pathways of Proliferation, Genome Reparation and Early Apoptosis” (Cancers, 2023)
